Measurements from patent US20250354127A1, “CRYOPRESERVED DAIRY GOAT SEMEN METABOLITE SCREENING AND DILUENT PREPARATION METHOD” (NORTHWEST A&F UNIVERSITY, priority 2024, published 2025).
Marks after values point to notes of the source that are not given here.

Legend:
[1] = Sperm plasma membrane integrity (PMI) by SYBR-14/PI fluorescence staining; type: cell-based, dairy goat
Source text: (§1) 1) add different concentrations of gamma-aminobutyric acids into a tupping ram semen base diluent, and take a group without gamma-aminobutyric acid added as the control group; take a group with gamma-aminobutyric acid added as the experimental group, the addition concentrations are respectively 0.5 g/L, 1.0 g/L, 1.5 g/L and 2.0 g/L, and six duplications exist in each group; screen out the optimal concentration of gamma-aminobutyric acid according to semen quality indexes, set the optimal concentration to T group, and detect the semen membrane and acrosome integrity, various antioxidant enzyme activities and ROS content change after adding the optimal concentration of gamma-aminobutyric acid;

dairy goat sperms = test: Sperm viability and motility by CASA semen assisted analysis during preservation at 4 degrees C.; type: cell-based
Procedure: 1) prepare base diluent: add 30.3 g/L Tris, 16.0 g/L citric acid, 6.4 g/L glucose, 6.4 g/L D-fructose, 2.5 g/L trehalose, 1.0 g/L BSA and 3.75 g/L soybean lecithin into distilled water to 1 L, dissolve in a water bath for 1 hour at 37 degrees C., filter and sterilize, and then add 1 million IU/L penicillin and 1 million IU/L streptomycin; select semen with motility more than 80% for preservation, and keep diluent warm in a water bath at 37 degrees C. before semen dilution; gradually dilute at the dilution ratio (add the diluent into each group of semen along the tube wall during the operation), dilute the semen with the diluent at 1:1 and stand for 3 minutes, then dilute the semen with the diluent at 1:3 and stand for 3 minutes, and let the ratio of semen to diluent reach 1:7 (keep the temperature at 33-35 degrees C. during dilution); bind a centrifuge tube containing the diluted semen with a rubber band and put the centrifuge tube into a beaker containing isothermal water, keep the centrifuge tube vertical and the water level in the beaker higher than the diluent level of in the centrifuge tube, place for 1 hour at room temperature, put the beaker into a refrigerator at 4 degrees C., keep the cooling rate at 8-10 degrees C./h, and shake the centrifuge tube every 8 hours to prevent the sperms from accumulating, sinking to bottom and resulting in death;
2) take 5 μL of semen on the days 0, 1, 3 and 5 of semen preservation, put the semen on slides, preheat an objective table and perform microscopic examination at 37 degrees C., and detect semen motility and viability by Meilan CASA semen assisted analysis system; select at least five random fields of view for determination, with a minimum semen count of 200 in each field; the ratio of number of live sperms to total number of sperms is sperm viability, and the ratio of number of linearly moving sperms to total number of sperms is sperm motility. Average the results, and record the test data (see Table 1);
as §1

tupping ram sperms = test: Sperm acrosome integrity (CGI) by FITC-PNA fluorescence staining; type: cell-based, dairy goat
Source text: as §1

sperms = test: Antioxidant indexes of sperms (T-AOC, SOD, GSH-Px, MDA, CAT, ROS) by Solarbio kits; type: cell-based, dairy goat
Source text: as §1

[2] = experimental group, day 5 of preservation at 4 degrees C.
[3] = optimal concentration (T group), day 3 of preservation at 4 degrees C., P<0.05
[4] = 0.5 g/L in base diluent, Day 5 at 4 degrees C.
[5] = 1.0 g/L in base diluent, Day 5 at 4 degrees C.
[6] = 1.5 g/L in base diluent, Day 5 at 4 degrees C.
[7] = 2.0 g/L in base diluent, Day 5 at 4 degrees C.
[8] = preservation day not given, P<0.05

NCCCC(=O)O [gamma-aminobutyric acid, Gamma-aminobutyric acid]
Plasma membrane integrity of sperms [1, 2]: 58.93%
Plasma membrane integrity of sperms, T group vs NC group [1, 3]: significantly higher
Semen motility % (dairy goat sperms; 0.5 g/L in base diluent, Day 0): 81.36 ± 2.05%
Sperm viability % (dairy goat sperms; 0.5 g/L in base diluent, Day 0): 84.12 ± 2.15%
Semen motility % (dairy goat sperms; [4]): 50.69 ± 1.05^b %
Sperm viability % (dairy goat sperms; [4]): 52.45 ± 1.22^b %
Sperm motility compared with other addition groups (dairy goat sperms; 1 g/L): higher than those in other addition groups
Sperm viability compared with other addition groups (dairy goat sperms; 1 g/L): higher than those in other addition groups
Semen motility % (dairy goat sperms; 1.0 g/L in base diluent, Day 0): 81.36 ± 2.05%
Sperm viability % (dairy goat sperms; 1.0 g/L in base diluent, Day 0): 84.12 ± 2.15%
Semen motility % (dairy goat sperms; [5]): 53.69 ± 0.84^a %
Sperm viability % (dairy goat sperms; [5]): 56.49 ± 1.32^a %
Semen motility % (dairy goat sperms; 1.5 g/L in base diluent, Day 0): 81.36 ± 2.05%
Sperm viability % (dairy goat sperms; 1.5 g/L in base diluent, Day 0): 84.12 ± 2.15%
Semen motility % (dairy goat sperms; [6]): 47.32 ± 2.41^c %
Sperm viability % (dairy goat sperms; [6]): 50.52 ± 2.74^b %
Semen motility % (dairy goat sperms; 2.0 g/L in base diluent, Day 0): 81.36 ± 2.05%
Sperm viability % (dairy goat sperms; 2.0 g/L in base diluent, Day 0): 84.12 ± 2.15%
Semen motility % (dairy goat sperms; [7]): 45.55 ± 1.52^d %
Sperm viability % (dairy goat sperms; [7]): 45.36 ± 2.31^c %
Acrosome integrity of sperms (tupping ram sperms; [2]): 60.12%
Acrosome integrity of sperms, T group vs NC group (tupping ram sperms; [3]): significantly higher
GSH-Px, T group vs NC group (sperms; day 1 of preservation): not significantly different
MDA, T group vs NC group (sperms; day 1 of preservation): not significantly different
T-AOC, T group vs NC group (sperms; day 1 of preservation): not significantly different
CAT enzyme activity, T group vs NC group (sperms; day 1 of preservation, P<0.05): significantly increased
Level of ROS, T group vs NC group (sperms; day 1 of preservation, P<0.05): significantly decreased
SOD enzyme activity, T group vs NC group (sperms; day 1 of preservation, P<0.05): significantly increased
Level of CAT, T group vs NC group (sperms; [8]): significantly higher
Level of GSH-Px, T group vs NC group (sperms; [8]): significantly higher
Level of MDA, T group vs NC group (sperms; [8]): significantly lower
Level of ROS, T group vs NC group (sperms; [8]): significantly lower
Level of SOD, T group vs NC group (sperms; [8]): significantly higher
Level of T-AOC, T group vs NC group (sperms; [8]): significantly higher
